Conditions: laminin fragments in a collagen-filled silicon tube
From the text: The present invention is directed to a biomaterial for nerve reconstruction, comprising chitin or chitosan with a surface modified by a laminin fragment having an amino acid sequence, such as YIGSR (tyrosine-isoleucine-glycine-serine-arginine) or IKVAV (isoleucine-lysine-valine-alanine-valine). This material may be used in the form of a nerve-bridging chitosan tube with a wall surface directly modified by the above laminin fragment, a nerve-bridging tube containing therein chitosan fibers with a surface modified by the above laminin fragment, or a nerve-bridging tube filled with chitosan gel modified by the above laminin fragment.

| Substance | cell adhesion and neurite growth-promoting effects in vivo |
| --- | --- |
| isoleucine-lysine-valine-alanine-valine [IKVAV] | cannot achieve such effects |
| tyrosine-isoleucine-glycine-serine-arginine [YIGSR] | cannot achieve such effects |

From patent US20040248777A1, “Biomaterials for nerve reconstruction and process for producing the same” (priority 2001, published 2004)
